Source: patent publication US10106552B2, “Compounds inhibiting eukaryotic elongation factor 2 kinase activity” (Longevica Pharmaceuticals, Inc., priority 2013, dated 2018)

What was measured:
recombinant eEF2K = recombinant eEF2K (Homo sapiens (Human), UniProt O00418); experiment: eEF2K Kinase-Glo luminescent kinase assay (ATP consumption, peptide substrate); assay type: biochemical; conditions: average of two to four separate experimental measurements, each the average of three replicates
Procedure: The following compounds were synthesized using the general methods described above. In the table below, IC50 values are in μM and are the average of two to four separate experimental measurements, each consisting in turn of the average of three replicates. IC50 values were calculated using the methods as described in Example 2. MW was determined by mass spectroscopy analysis, and is expressed as M+1.
To determine the IC50 of compounds of the invention, recombinant eEF2K was diluted in an assay buffer in the presence of calmodulin, a calcium-binding messenger protein expressed in eukaryotic cells, and incubated with peptide substrate Ac-RKKYKFNEDTERRRFL in the presence of Adenosine-5′-triphosphate (ATP) and the test compound. The peptide substrate is efficiently and specifically phosphorylated by eEF2K at a single substrate concentration of 100 μM. Using this peptide, eEF2K activity can be quantitatively determined using a Kinase-Glo® luminescent kinase assay kit (Promega) that measures ATP consumption by EF2K during phosphorylation of the substrate. ATP conversion was recorded using Perkin-Elmer Victor Luminometer. Data was plotted using GraphPad software and IC50 was calculated using 3-parameter sigmoidal curve fit.

[1] = test system: breast cancer cell line MDA-MB-231; experiment: Potentiation of doxorubicin effect, CellTiter-Glo cell viability; assay type: cell-based
Procedure: The potentiation of doxorubicin effect of eEF2K inhibition by Compound 35 in combination with doxorubicin was evaluated. The breast cancer cell line MDA-MB-231 (ATCC No. HTB-26) was incubated with 0.4 μM doxorubicin for 24 hours, with both a negative control (untreated) group and a group receiving only 10 μM Compound 35 but not doxorubicin.

[2] = Pharmacokinetic study, intravenous administration; conditions: mouse, in vivo, male CD-1 mice, 1 mg/kg
[3] = test system: human bone osteosarcoma cancer cell line MG63; experiment: Cell viability under normal conditions and nutrient deprivation, CellTiter-Glo; assay type: cell-based
Procedure: The effect of eEF2K inhibition on the malignant human bone osteosarcoma cancer cell line MG63 (ATCC No. CRL-1427) was evaluated under both normal conditions and during nutrient deprivation. […] One group of cells were grown under normal conditions (advanced MEM/glutamine/10% FBS) and the other group of cells were switched to conditions of nutrient deprivation (HBSS/22 mM HEPES) twenty-four hours after plating. Each group was divided into three subsets: cells receiving no treatment; cells receiving vehicle (DMSO) and cells receiving 10 μM of Compound 35.

[4] = test system: rat embryonic myocardium cell line H9C2; experiment: Doxorubicin-induced apoptosis, CellTiter-Glo cell viability; conditions: for recovery, percent of original density: H9C2, 0.4 μM doxorubicin 24 hours
Procedure: The cells were plated into 48-well plates at 0.2×10^5 cells per well and allowed to attach overnight. […] Cell viability was measured on days 1, 2, 3, and 6 using the Promega CellTiter-Glo® Luminescent Cell Viability Assay.

SMILES: CC1(C)CCc2c1nc1sc(C(N)=O)c(N)c1c2-c1sccc1Br [Compound 34, 3-Amino-4-(3-bromo-thiophen-2-yl)-7,7-dimethyl-6,7-dihydro-5H-1-thia-8-aza-s-indacene-2-carboxylic acid amide]
- IC50 (recombinant eEF2K): 800 nM

SMILES: CC1(C)CCc2c(nc3sc(C(N)=O)c(N)c3c2-c2cncs2)C1 [Compound 35, 3-Amino-7,7-dimethyl-4-thiazol-5-yl-5,6,7,8-tetrahydro-thieno[2,3-b]quinoline-2-carboxylic acid amide]
- percent of viable cells ([1]; MDA-MB-231, 0.4 μM doxorubicin 24 hours plus 10 μM Compound 35 twice daily for 72 hours, days 2, 4 and 6): significant decrease
- percent of viable cells ([1]; MDA-MB-231, 10 μM Compound 35 without doxorubicin, by day 6): increased substantially
- half-life [2]: 34 min
- Cmax ([2]; at five minutes): 356 ng/mL
- IC50 (recombinant eEF2K): 400 nM
- viability at 10 µM ([3]; Homo sapiens, MG-63, 144 h, MG63, nutrient deprivation (HBSS/22 mM HEPES), by day 6, read-out: percent viable cells): < 10%
- cell growth ([3]; MG63, normal conditions (advanced MEM/glutamine/10% FBS), 10 μM): significant growth
- protection of H9C2 cells from doxorubicin-induced toxicity ([4]; 0.4 μM doxorubicin 24 hours, 2 μM or 10 μM compound twice daily for 72 hours): robust, dose-dependent protection
- recovery, percent of original density ([4]; 2 μM compound, by day 6): 85%
- recovery, percent of original density ([4]; 10 μM compound, by day 2): 85%

SMILES: CC1CC(C)(C)Cc2nc3sc(C(N)=O)c(N)c3c(-c3cncs3)c21 (stereo not shown) [Compound 36, 3-Amino-5,7,7-trimethyl-4-thiazol-5-yl-5,6,7,8-tetrahydro-thieno[2,3-b]quinoline-2-carboxylic acid amide]
- IC50 (recombinant eEF2K): 400 nM

SMILES: CC1(C)CCCc2c1nc1sc(C(N)=O)c(N)c1c2-c1cc(Br)co1 [Compound 37, 3-Amino-4-(4-bromo-furan-2-yl)-8,8-dimethyl-5,6,7,8-tetrahydro-thieno[2,3-b]quinoline-2-carboxylic acid amide]
- IC50 (recombinant eEF2K): 900 nM

SMILES: CC1(C)CCCc2c1nc1sc(C(N)=O)c(N)c1c2-c1cncs1 [Compound 38, 3-Amino-8,8-dimethyl-4-thiazol-5-yl-5,6,7,8-tetrahydro-thieno[2,3-b]quinoline-2-carboxylic acid amide]
- IC50 (recombinant eEF2K): 300 nM

SMILES: Cn1cc(-c2c3c(nc4sc(C(N)=O)c(N)c24)C(C)(C)CCC3)cn1 [Compound 39, 3-Amino-8,8-dimethyl-4-(1-methyl-1H-pyrazol-4-yl)-5,6,7,8-tetrahydro-thieno[2,3-b]quinoline-2-carboxylic acid amide]
- IC50 (recombinant eEF2K): 1400 nM

SMILES: Cc1ncsc1-c1c2c(nc3sc(C(N)=O)c(N)c13)C(C)(C)CC2 [Compound 40, 3-Amino-7,7-dimethyl-4-(4-methyl-thiazol-5-yl)-6,7-dihydro-5H-1-thia-8-aza-s-indacene-2-carboxylic acid amide]
- IC50 (recombinant eEF2K): 400 nM

SMILES: Cc1nc(C)c(-c2c3c(nc4sc(C(N)=O)c(N)c24)C(C)(C)CC3)s1 [Compound 41, 3-Amino-4-(2,4-dimethyl-thiazol-5-yl)-7,7-dimethyl-6,7-dihydro-5H-1-thia-8-aza-s-indacene-2-carboxylic acid amide]
- IC50 (recombinant eEF2K): 500 nM

SMILES: NC(=O)c1sc2nc3c(c(-c4cncs4)c2c1N)CCCC31CCCC1 [Compound 42]
- IC50 (recombinant eEF2K): 3100 nM

SMILES: NC(=O)c1sc2nc3c(c(-c4cncs4)c2c1N)C1CCC3C1 (stereo not shown) [Compound 43]
- IC50 (recombinant eEF2K): 900 nM

SMILES: COc1cccc2c1C(=O)c1c(O)c3c(c(O)c1C2=O)C[C@@](O)(C(=O)CO)C[C@@H]3O[C@H]1C[C@H](N)[C@H](O)[C@H](C)O1 [doxorubicin, reference compound]
- percent of viable cells ([1]; MDA-MB-231, 0.4 μM doxorubicin for 24 hours alone, by day 6): increased slightly
- proliferation of remaining viable cells ([4]; H9C2, after doxorubicin was removed after 24 hours): failed to proliferate
- cell death ([4]; H9C2, control arm, 0.4 μM doxorubicin for 24 hours): 65%
